Assay results reported in article PMC8031368 (ACS chemical biology, 2020).

Assays:
[1] = Biodistribution study post mortem; type: in vivo; details: C57Bl6/J mice, mean ± SD
GR [2] = target: T1, GR (Mus musculus, UniProt P06537); test: 18F-YJH08 PET/CT in adipocyte specific GR knockout mice; type: in vivo; details: vs wild type litter mate, supraspinal and scapular brown fat depots
T1 sequence (P06537 1-792): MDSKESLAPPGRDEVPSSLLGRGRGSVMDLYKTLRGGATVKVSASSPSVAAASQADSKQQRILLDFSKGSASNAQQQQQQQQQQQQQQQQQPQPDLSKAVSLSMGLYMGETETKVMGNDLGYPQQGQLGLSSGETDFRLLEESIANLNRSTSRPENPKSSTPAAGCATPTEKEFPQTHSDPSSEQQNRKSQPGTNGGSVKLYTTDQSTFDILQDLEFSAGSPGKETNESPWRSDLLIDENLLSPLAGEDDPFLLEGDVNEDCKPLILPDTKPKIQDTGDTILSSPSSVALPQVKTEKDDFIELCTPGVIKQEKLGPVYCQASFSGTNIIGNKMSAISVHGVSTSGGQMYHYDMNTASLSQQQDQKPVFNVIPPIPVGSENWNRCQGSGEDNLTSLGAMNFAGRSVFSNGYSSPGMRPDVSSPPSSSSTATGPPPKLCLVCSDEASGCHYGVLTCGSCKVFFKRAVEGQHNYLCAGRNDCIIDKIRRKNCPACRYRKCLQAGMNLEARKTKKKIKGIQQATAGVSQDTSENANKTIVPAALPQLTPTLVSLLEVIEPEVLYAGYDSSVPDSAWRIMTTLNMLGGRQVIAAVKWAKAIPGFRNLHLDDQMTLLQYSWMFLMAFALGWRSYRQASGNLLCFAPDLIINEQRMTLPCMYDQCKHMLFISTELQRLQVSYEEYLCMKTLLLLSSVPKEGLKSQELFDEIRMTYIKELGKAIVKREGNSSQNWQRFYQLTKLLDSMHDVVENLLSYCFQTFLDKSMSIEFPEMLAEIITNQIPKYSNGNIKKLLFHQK

GR [3] = target: T1, GR; test: 18F-YJH08 uptake in adrenalectomized mice
[4] = Determination of partition coefficient; type: physicochemical; details: 1-octanol / PBS pH 7.4
[5] = Dynamic PET scan over 60 min, time activity curves; type: in vivo; details: male C57Bl6/J mice
GR [6] = test: Immunoblot of GR in tissues of JG231 treated mice; type: in vivo; details: JG231 4 mg/kg/day for 3 days intraperitoneally
GR in MCF7 = test: Immunoblot of GR in MCF7 cells treated with JG231; type: cell-based, human; details: 24 h
[7] = system: prostate cancer mouse models; details: cited from earlier work
GR in MDA MB 231 = test: Immunoblot of GR in MDA MB 231 cells treated with JG231; type: cell-based, human; details: 24 h
[8] = system: GR target genes (GILZ, FKBP5, Per1) in DU145 cells; test: Real time PCR of GR target genes in DU145 cells; type: cell-based, human; details: DU145 cells, dexamethasone 1 μM, 6 h exposure

COc1cccc2c1-c1ccc3c(c1C(Cc1ccc([18F])cc1)O2)C(C)=CC(C)(C)N3 (centres unmarked) [18F-YJH08, ^18F-5-(4-fluorobenzyl)-10-methoxy-2,2,4-trimethyl-2,5-dihydro-1H-chromeno[3,4-f]quinoline]
uptake in adrenal gland ([1]; 30 min after injection): 20.02 ± 2.21 % ID/g
uptake in adrenal gland ([1]; 60 min after injection): 9.43 ± 0.08 % ID/g
uptake in adrenal gland ([1]; 90 min after injection): 5.72 ± 2.32 % ID/g
uptake in blood ([1]; 30 min after injection): 0.85 ± 0.1 % ID/g
uptake in blood ([1]; 60 min after injection): 0.57 ± 0.02 % ID/g
uptake in blood ([1]; 90 min after injection): 0.49 ± 0.06 % ID/g
uptake in bone ([1]; 30 min after injection): 1.11 ± 0.15 % ID/g
uptake in bone ([1]; 60 min after injection): 0.61 ± 0.15 % ID/g
uptake in bone ([1]; 90 min after injection): 0.58 ± 0.16 % ID/g
uptake in brain ([1]; 30 min after injection): 1.68 ± 0.14 % ID/g
uptake in brain ([1]; 60 min after injection): 1.33 ± 0.06 % ID/g
uptake in brain ([1]; 90 min after injection): 0.97 ± 0.03 % ID/g
uptake in heart ([1]; 30 min after injection): 3.04 ± 0.75 % ID/g
uptake in heart ([1]; 60 min after injection): 1.33 ± 0.21 % ID/g
uptake in heart ([1]; 90 min after injection): 0.92 ± 0.14 % ID/g
uptake in kidney ([1]; 30 min after injection): 4.5 ± 0.5 % ID/g
uptake in kidney ([1]; 60 min after injection): 2.35 ± 0.34 % ID/g
uptake in kidney ([1]; 90 min after injection): 1.86 ± 0.26 % ID/g
uptake in large intestine ([1]; 30 min after injection): 1.33 ± 0.35 % ID/g
uptake in large intestine ([1]; 60 min after injection): 1.23 ± 0.43 % ID/g
uptake in large intestine ([1]; 90 min after injection): 6.67 ± 4.73 % ID/g
uptake in liver ([1]; 30 min after injection): 11.03 ± 0.89 % ID/g
uptake in liver ([1]; 60 min after injection): 7.7 ± 0.69 % ID/g
uptake in liver ([1]; 90 min after injection): 8.43 ± 1.38 % ID/g
uptake in lung ([1]; 30 min after injection): 2.65 ± 0.19 % ID/g
uptake in lung ([1]; 60 min after injection): 2.02 ± 0.29 % ID/g
uptake in lung ([1]; 90 min after injection): 1.39 ± 0.1 % ID/g
uptake in muscle ([1]; 30 min after injection): 1.49 ± 0.2 % ID/g
uptake in muscle ([1]; 60 min after injection): 1.15 ± 0.03 % ID/g
uptake in muscle ([1]; 90 min after injection): 0.85 ± 0.18 % ID/g
uptake in pancreas ([1]; 30 min after injection): 4.5 ± 0.15 % ID/g
uptake in pancreas ([1]; 60 min after injection): 2.63 ± 0.05 % ID/g
uptake in pancreas ([1]; 90 min after injection): 1.9 ± 0.41 % ID/g
uptake in small intestine ([1]; 30 min after injection): 19.05 ± 3.27 % ID/g
uptake in small intestine ([1]; 60 min after injection): 8.61 ± 2.68 % ID/g
uptake in small intestine ([1]; 90 min after injection): 7.67 ± 2.34 % ID/g
uptake in spleen ([1]; 30 min after injection): 1.59 ± 0.13 % ID/g
uptake in spleen ([1]; 60 min after injection): 0.83 ± 0.02 % ID/g
uptake in spleen ([1]; 90 min after injection): 0.74 ± 0.15 % ID/g
uptake in stomach ([1]; 30 min after injection): 1.88 ± 0.96 % ID/g
uptake in stomach ([1]; 60 min after injection): 1.63 ± 0.92 % ID/g
uptake in stomach ([1]; 90 min after injection): 2.61 ± 1.54 % ID/g
uptake in supraspinal BAT ([1]; 30 min after injection): 14.41 ± 3.42 % ID/g
uptake in supraspinal BAT ([1]; 60 min after injection): 16.4 ± 4.93 % ID/g
uptake in supraspinal BAT ([1]; 90 min after injection): 14.58 ± 1.91 % ID/g
uptake in fat depots of GR^fl/fl, Adipoq-Cre knockout mice (GR [2]): significantly reduced
tissue uptake in adx mice compared to intact mice (GR [3]): higher
partition coefficient (log P) [4]: 2.78
mechanism of clearance ([5]; liver uptake and washout): hepatobiliary
radiotracer uptake in the bone (stability to radiodefluorination) [5]: low and approximately equivalent to muscle

CCn1c(=O)/c(=C2\Sc3cc(Cl)ccc3N2C)s/c1=C\c1scc[n+]1Cc1ccc(Br)s1.[Cl-] [JG231]
change in GR levels in kidneys, liver, and muscle (GR [6]): no change
reduction in GR expression levels in brown fat (GR [6]): ~ 50%
GR degradation (immunoblot) (GR in MCF7): degrades GR
antitumor activity [7]: antitumor activity
GR degradation (immunoblot) (GR in MDA MB 231): degrades GR

C[C@@H]1C[C@H]2[C@@H]3CCC4=CC(=O)C=C[C@]4(C)[C@@]3(F)[C@@H](O)C[C@]2(C)[C@@]1(O)C(=O)CO [dexamethasone, reference compound]
induction of Per1 [8]: induced
